Measurements: patent US20040170622A1, “Methods and compositions for modulating XBP-1 activity” (President and Fellows of Harvard College, priority 2002, published 2004)
Entries after “also recorded” stand apart in the source; their conditions may differ. Where a SMILES comes first, the peptide text is derived from it. The star is where a group is joined. Cbz = O=C(OCc1ccccc1)*

Tests used:
Format in all cases: cell-based
PERK = PERK autophosphorylation in J558 cells
[1] = tested on: IRE1α-mediated XBP-1 mRNA splicing; assay: XBP-1 mRNA level and splicing in J558 cells (Northern blot, RT-PCR); details: for XBP-1 mRNA splicing, agent alone (RT-PCR) / overall levels of XBP-1 RNA (Northern blot): J558 cells
Experimental: (§1) (A) XBP-1 mRNA levels in ER stressed J558 cells treated with Tm for 4 hrs in the absence or presence of MG-132. Cells were pretreated with MG-132 for 1 hr before adding Tm. XBP-1 mRNA levels were determined by Northern blot analysis. […] (C) Effect of a panel of PIs on XBP-1 splicing. Cells were treated with Tm for 4 hrs in the absence or presence of MG-132 (10 μM), PS-341 (10 μM), Lactacystin (10 μM), ZL3VS (50 μM) or AdaAhxL3VS (50 μM), and XBP-1 mRNA splicing measured by RT-PCR analysis. (D) IRE-1α phosphorylation in NIH3T3 cells were treated with Tm as indicated after 2 hrs of pretreatment with MG-132 (10 μM).
(§2) Total RNA was prepared by using Trizol reagent, electrophoresed on 1.2% agarose, 6% formaldehyde gels and then transferred onto Genescreen Plus membrane, (NEN, Boston, Mass.). […] Probes for ERdj4 and p58^IPK were generated from cDNA excised from EST clones (ATCC, Manassas, Va.) using appropriate restriction enzymes (ERdj4, IMAGE: 1920927; p58^IPK, IMAGE:2646147).

IRE1α = IRE1α phosphorylation in NIH3T3 cells (Western blot)
Experimental: as §1
Cells were lysed in RIPA buffer (50 mM Tris pH 7.4, 150 mM NaCl, 1 mM EDTA, 1% Triton X-100, 1% sodium deoxycholate, 0.1% SDS) and lysates subjected to SDS-PAGE and transferred to Hybond P membrane (Amersham-Pharmacia, Piscataway, N.J.). […] HeLa cells were cotransfected with XBP-1u and His-tagged ubiquitin expression plasmids (pMT 107, D. Bohmann, EMBL, Germany) by using the Lipofectamine-2000 reagent (Invitrogen, Carlsbad, Calif.). […] Degradation rates of XBP-1u and XBP-1s proteins were determined by pulse labeling J558 cells with ^35S Met/Cys for 1 hr and chasing for the indicated times.

BiP and CHOP = assay: UPR target gene expression in NIH3T3 and J558 myeloma cells (Northern blot); details: for induction of UPR target genes (BiP, CHOP), agent alone: MG-132 20 μM, Tm 10 μg/ml
Experimental: (§3) (A) BiP and CHOP induction was examined by northern blot analysis after treating NIH3T3 or J558 myeloma cells with either MG-132 (20 μM), Tm (10 μg/ml) or both. Cells were pretreated with MG-132 for 1 hr and then further treated with Tm for 4 hrs. Ethidium bromide staining of the gel is shown at the bottom. (B) Inhibition of caspase-12 processing by proteasome inhibitors. Processing of full-length caspase-12 was examined by Western blotting in J558 myeloma cells treated with thapsigargin (1 μM) or PIs (20 μM) during the indicated time periods. (C) Alteration in the ratio of XBP-1 protein species in J558 cells were treated with increasing amounts of MG-132 for 16 hrs. Cells undergoing apoptosis were counted by Annexin V staining. (D) Time course of the XBP-1s to XBP-1u shift. Cells were treated with MG-132 (1 μM) for the indicated times and XBP-1u and spliced protein levels and cell death determined. (E) Alteration in the ratio of XBP-1 species in the MM.1s human myeloma line. Cells were treated with PS-341 (8 nM) in a time course analysis and XBP-1 protein species quantified.
as §2
The maturation and folding of ER membrane and secretory proteins relies on the activity of ER-resident chaperones and folding enzymes. ER proteins that ultimately fail to fold properly are degraded by the 26S proteasome, or ERAD. […] To test the effect of proteasome dysfunction on UPR activation, NIH3T3 fibroblasts (left panel) and J558 myeloma cells (right panel) were treated with the proteasome inhibitor (PI) MG-132 in the presence or absence of the ER stress inducer, tunicamycin (Tm), and the expression of UPR target genes assessed (FIG. 10a).

J558 myeloma cells = assay: Apoptosis of J558 myeloma cells (Annexin V staining); details: for apoptosis, combination of Tm and MG-132: J558, 18 hrs, suboptimal concentrations
Experimental: as §3
(A) Synergistic effect of Tm and MG-132 on apoptosis. Annexin V positive cells were counted after treating J558 cells for 18 hrs with suboptimal concentrations of Tm and MG-132 as indicated. (B) J558-iXBP cells were generated by retroviral transduction of J558 cells with the U6 promoter based XBP-1 RNAi vector. (C) XBP-1 dependent gene expression in J558 cells that express control GFP, dn-XBP or iXBP-1 treated with Tm. Generation of dn-XBP-1 J558 cells by infection with a retrovirus containing dn-XBP cDNA inserted into the GFP-RV vector (N. N. lwakoshi et al., Nature Immunology 4, 321-329 (2003)). ERdj4, p58^IPK, BiP and CHOP gene expression were examined by Northern blot analysis. (D) Increased apoptosis in iXBP-1 and dn-XBP-1 expressing J558 cells. Cells were treated with the indicated amounts of Tm for 48 hrs and dead cells counted after Annexin V staining.
Cells were stained with annexin V-PE (BD PharMingen, San Jose, Calif.) as recommended and analyzed on a FACScan flow cytometer (Becton Dickinson, San Jose, Calif.).

Molecule	amount of phosphorylated PERK (PERK)	XBP-1 mRNA splicing, agent alone (RT-PCR) [1]	overall levels of XBP-1 RNA (Northern blot) [1]	IRE1α phosphorylation (IRE1α; Tm-treated vs untreated cells)	induction of UPR target genes (BiP, CHOP), agent alone (BiP and CHOP)	apoptosis, combination of Tm and MG-132 (J558 myeloma cells)	effect on Tm-induced autophosphorylation of PERK (PERK)	effect on Tm-induced XBP-1 mRNA splicing ([1]; J558, Tm 4 hrs, MG-132 10 μM, PS-341 10 μM, ZL3VS 50 μM, AdaAhxL3VS 50 μM)	effect on Tm-induced IRE1α phosphorylation (IRE1α; 2 hrs pretreatment with MG-132 10 μM)	effect on Tm-induced stress response (BiP and CHOP; MG-132 pretreatment 1 hr, then Tm 4 hrs, NIH3T3 and J558)	apoptosis in J558 cells (J558 myeloma cells; agent alone)	apoptosis upon Tm treatment compared to control GFP-transduced cells (J558 myeloma cells; transduced J558 cells, Tm 48 hrs)	cell proliferation or viability at baseline (J558 myeloma cells; transduced J558 cells, no Tm)
tunicamycin [Tm]	led to an increase in the amount of phosphorylated PERK	markedly induced XBP-1 mRNA splicing	not significantly altered	increase in the phosphorylated (slower mobility) and decrease in unphosphorylated IRE1α species	induction of expression of representative UPR target genes such as BiP (Grp78) and CHOP	synergistically induced apoptosis							
CC(C)C[C@@H](C=O)NC(=O)[C@H](CC(C)C)NC(=O)[C@H](CC(C)C)NC(=O)OCc1ccccc1 [MG-132] (Cbz-Leu-Leu-Leu-aldehyde)		did not induce any XBP-1mRNA splicing	not significantly altered		also induced the UPR	synergistically induced apoptosis	a decrease in the autophosphorylation of PERK; also recorded: very marked decrease in the autophosphorylation of PERK	suppressed by MG-132 in a dose dependent manner	completely blocked the phosphorylation of IRE1α by Tm	blocked rather than further augmented the Tm-induced stress response	induced apoptosis in J558 cells		
dn-XBP: dominant negative XBP-1 containing the N-terminal 188 aa, lacking transactivation domain, retaining leucine zipper (protein) MVVVAAAPSAATAAPKVLLLSGQPASGGRALPLMVPGPRAAGSEASGTPQARKRQRLTHLSPEEKALRRKLKNRVAAQTARDRKKARMSELEQQVVDLEEENHKLQLENQLLREKTHGLVVENQELRTRLGMDTLDPDEVPEVEAKGSGVRLVAGSAESAAGAGPVVTSPEHLPMDSDTVASSDSESD												significantly increased apoptosis	No effect on cell proliferation or viability
